Assays:
[1] = molecular target: T1, Interstitial collagenase (Homo sapiens, UniProt P03956); assay: Inhibition of human recombinant matrix metalloprotease-1 (hMMP-1)
T1 sequence (P03956 whole entry): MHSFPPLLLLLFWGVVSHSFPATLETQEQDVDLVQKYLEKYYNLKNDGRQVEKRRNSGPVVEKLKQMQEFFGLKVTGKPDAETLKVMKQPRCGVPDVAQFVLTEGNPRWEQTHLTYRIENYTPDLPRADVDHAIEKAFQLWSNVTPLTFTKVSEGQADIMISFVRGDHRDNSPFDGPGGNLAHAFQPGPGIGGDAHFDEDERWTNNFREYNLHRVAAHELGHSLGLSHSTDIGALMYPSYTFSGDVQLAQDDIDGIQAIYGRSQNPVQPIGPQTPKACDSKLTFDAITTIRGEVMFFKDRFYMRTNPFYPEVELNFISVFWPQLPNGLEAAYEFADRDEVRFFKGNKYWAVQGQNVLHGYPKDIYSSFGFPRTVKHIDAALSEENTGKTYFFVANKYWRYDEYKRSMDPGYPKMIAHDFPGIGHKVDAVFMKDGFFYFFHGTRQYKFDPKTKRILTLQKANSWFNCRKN

[2] = molecular target: Neutrophil collagenase (Homo sapiens, UniProt P22894); assay: Inhibition of human recombinant matrix metalloprotease-8 (hMMP-8)
[3] = molecular target: Collagenase 3 (Homo sapiens, UniProt P45452); assay: Inhibition of human recombinant matrix metalloprotease-13 (hMMP-13)

Chain of Neutrophil collagenase (P22894 whole entry): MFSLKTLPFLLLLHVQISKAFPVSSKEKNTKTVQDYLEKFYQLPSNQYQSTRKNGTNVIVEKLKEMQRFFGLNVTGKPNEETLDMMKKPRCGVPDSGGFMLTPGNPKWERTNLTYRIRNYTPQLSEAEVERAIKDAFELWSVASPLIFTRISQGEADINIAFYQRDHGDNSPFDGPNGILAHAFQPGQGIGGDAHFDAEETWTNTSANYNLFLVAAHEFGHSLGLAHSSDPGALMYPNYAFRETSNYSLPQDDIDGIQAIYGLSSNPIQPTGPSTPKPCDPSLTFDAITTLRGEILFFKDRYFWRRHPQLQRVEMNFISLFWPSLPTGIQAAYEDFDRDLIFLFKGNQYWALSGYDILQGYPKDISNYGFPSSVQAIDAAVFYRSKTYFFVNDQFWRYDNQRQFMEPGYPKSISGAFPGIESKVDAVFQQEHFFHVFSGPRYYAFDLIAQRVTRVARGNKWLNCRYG

| IC50 [1] | IC50 [2] | Compound | IC50 [3] |
| --- | --- | --- | --- |
| 1000 nM | 585 nM | COc1ccc(S(=O)(=O)C2CCCC(S)C2)cc1 (centres undefined) | – |
| > 10000 nM | 50 nM | O=S(=O)(c1ccc(Sc2ccccc2)cc1)C1CCCC(S)C1 (centres undefined) | – |
| > 10000 nM | – | COc1ccc(S(=O)(=O)C2CCC(S)C2)cc1 (centres undefined) | – |
| – | 1100 nM | COc1ccc(S(=O)(=O)CCCS)cc1 | – |

| Compound | IC50 [1] | IC50 [2] | IC50 [3] |
| --- | --- | --- | --- |
| O=S(=O)(c1ccc(Oc2ccccc2)cc1)C1CCCC(S)C1 (centres undefined) | 1700 nM | 8 nM | 1 nM |
